From PMC4076210, “Discovery of Novel AKT Inhibitors with Enhanced Anti-Tumor Effects in Combination with the MEK Inhibitor” (PLoS ONE, 2014)
Where two headings read alike, the source gives them in different places.

Columns and labels:
Format in all cases: biochemical
CDK6/cyclinD3(h) = biological target: T1, CDK6/cyclinD3(h) (Homo sapiens, UniProt Q00534); experiment: Kinase panel
T1 construct: purchased Millipore KinaseProfiler

CK2(h) = biological target: T2, CK2(h) (Homo sapiens, UniProt P68400); experiment: Kinase panel
T2 construct: purchased Millipore KinaseProfiler

cKit(D816H)(h) = biological target: T3, cKit(D816H)(h) (Homo sapiens, UniProt P10721, D816H); experiment: Kinase panel
T3 construct: purchased Millipore KinaseProfiler

c-RAF(h) = biological target: T4, c-RAF(h) (Homo sapiens, UniProt P04049); experiment: Kinase panel
T4 construct: purchased Millipore KinaseProfiler

DAPK2(h) = biological target: T5, DAPK2(h) (Homo sapiens, UniProt Q9UIK4); experiment: Kinase panel
T5 construct: purchased Millipore KinaseProfiler

PAK2(h) = biological target: T6, PAK2(h) (Homo sapiens, UniProt Q13177); experiment: Kinase panel
T6 construct: purchased Millipore KinaseProfiler

PKD2(h) = biological target: T7, PKD2(h) (Homo sapiens, UniProt Q9BZL6); experiment: Kinase panel
T7 construct: purchased Millipore KinaseProfiler
T7 sequence (Q9BZL6 1-878): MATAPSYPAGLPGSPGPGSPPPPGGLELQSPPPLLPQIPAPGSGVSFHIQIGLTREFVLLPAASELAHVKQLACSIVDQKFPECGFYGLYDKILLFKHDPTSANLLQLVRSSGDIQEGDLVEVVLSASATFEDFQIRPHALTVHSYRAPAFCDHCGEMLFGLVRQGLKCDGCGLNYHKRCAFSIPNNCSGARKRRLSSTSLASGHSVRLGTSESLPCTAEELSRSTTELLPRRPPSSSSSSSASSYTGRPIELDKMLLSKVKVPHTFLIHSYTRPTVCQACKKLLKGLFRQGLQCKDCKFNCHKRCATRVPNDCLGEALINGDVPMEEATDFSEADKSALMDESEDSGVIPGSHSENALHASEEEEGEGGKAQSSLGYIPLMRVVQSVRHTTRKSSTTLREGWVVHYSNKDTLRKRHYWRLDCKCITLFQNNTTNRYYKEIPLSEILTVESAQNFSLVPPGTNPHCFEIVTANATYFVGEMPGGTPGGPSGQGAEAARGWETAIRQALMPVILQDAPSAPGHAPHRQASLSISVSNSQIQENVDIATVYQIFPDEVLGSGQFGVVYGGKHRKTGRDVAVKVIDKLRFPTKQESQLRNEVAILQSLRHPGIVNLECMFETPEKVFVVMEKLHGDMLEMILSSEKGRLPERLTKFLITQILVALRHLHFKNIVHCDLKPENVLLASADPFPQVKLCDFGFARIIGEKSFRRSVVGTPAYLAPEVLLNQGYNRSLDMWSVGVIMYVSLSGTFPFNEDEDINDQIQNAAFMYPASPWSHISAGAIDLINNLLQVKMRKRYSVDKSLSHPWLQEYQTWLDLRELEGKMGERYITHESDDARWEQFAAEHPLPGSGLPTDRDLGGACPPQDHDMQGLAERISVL

Rsk3(h) = biological target: T8, Rsk3(h) (Homo sapiens, UniProt Q15349); experiment: Kinase panel
T8 construct: purchased Millipore KinaseProfiler

SGK2(h) = biological target: T9, SGK2(h) (Homo sapiens, UniProt Q9HBY8); experiment: Kinase panel
T9 construct: purchased Millipore KinaseProfiler
T9 sequence (Q9HBY8 1-367): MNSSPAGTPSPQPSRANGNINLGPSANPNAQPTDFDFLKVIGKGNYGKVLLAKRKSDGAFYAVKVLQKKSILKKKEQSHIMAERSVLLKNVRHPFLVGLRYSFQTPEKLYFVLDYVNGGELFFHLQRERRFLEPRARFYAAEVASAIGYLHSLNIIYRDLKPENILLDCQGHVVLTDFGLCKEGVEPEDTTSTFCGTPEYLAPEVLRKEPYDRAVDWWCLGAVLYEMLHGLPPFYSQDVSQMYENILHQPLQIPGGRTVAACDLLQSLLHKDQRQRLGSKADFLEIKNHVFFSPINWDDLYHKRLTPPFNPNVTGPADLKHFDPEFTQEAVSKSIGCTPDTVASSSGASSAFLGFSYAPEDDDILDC

TSSK1(h) = biological target: T10, TSSK1(h) (Homo sapiens, UniProt Q9BXA7); experiment: Kinase panel
T10 construct: purchased Millipore KinaseProfiler
T10 sequence (Q9BXA7 1-367): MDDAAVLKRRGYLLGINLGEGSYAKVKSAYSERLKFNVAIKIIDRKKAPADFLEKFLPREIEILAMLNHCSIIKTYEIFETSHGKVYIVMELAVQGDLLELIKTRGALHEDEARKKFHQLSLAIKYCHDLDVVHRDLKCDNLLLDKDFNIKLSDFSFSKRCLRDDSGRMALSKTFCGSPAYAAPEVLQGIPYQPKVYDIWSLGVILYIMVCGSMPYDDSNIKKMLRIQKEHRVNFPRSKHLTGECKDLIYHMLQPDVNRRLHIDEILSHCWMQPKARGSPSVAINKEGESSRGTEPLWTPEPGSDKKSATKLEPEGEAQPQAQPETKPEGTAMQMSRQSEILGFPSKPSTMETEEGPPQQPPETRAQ

ZAP-70(h) = biological target: T11, ZAP-70(h) (Homo sapiens, UniProt P43403); experiment: Kinase panel
T11 construct: purchased Millipore KinaseProfiler
T11 sequence (P43403 1-619): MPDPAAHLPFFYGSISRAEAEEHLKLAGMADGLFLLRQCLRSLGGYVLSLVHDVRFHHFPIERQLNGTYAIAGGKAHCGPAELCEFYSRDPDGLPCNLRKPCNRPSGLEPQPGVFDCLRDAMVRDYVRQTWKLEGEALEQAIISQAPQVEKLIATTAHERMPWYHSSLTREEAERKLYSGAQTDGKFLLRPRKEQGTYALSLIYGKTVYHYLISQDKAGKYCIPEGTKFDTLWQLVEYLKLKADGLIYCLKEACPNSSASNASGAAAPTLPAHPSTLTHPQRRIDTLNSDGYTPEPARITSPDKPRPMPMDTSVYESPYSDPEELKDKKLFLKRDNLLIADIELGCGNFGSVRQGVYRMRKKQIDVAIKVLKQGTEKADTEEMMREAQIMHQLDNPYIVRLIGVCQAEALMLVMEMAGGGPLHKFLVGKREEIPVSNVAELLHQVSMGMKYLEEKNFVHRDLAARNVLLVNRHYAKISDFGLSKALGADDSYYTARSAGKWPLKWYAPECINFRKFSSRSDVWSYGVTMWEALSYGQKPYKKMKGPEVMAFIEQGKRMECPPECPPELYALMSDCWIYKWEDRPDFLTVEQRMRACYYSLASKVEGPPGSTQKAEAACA

PKCζ = PKCζ (Homo sapiens, UniProt Q05513); experiment: Kinase IC50 assay

T3 sequence (P10721 26-976 D816H): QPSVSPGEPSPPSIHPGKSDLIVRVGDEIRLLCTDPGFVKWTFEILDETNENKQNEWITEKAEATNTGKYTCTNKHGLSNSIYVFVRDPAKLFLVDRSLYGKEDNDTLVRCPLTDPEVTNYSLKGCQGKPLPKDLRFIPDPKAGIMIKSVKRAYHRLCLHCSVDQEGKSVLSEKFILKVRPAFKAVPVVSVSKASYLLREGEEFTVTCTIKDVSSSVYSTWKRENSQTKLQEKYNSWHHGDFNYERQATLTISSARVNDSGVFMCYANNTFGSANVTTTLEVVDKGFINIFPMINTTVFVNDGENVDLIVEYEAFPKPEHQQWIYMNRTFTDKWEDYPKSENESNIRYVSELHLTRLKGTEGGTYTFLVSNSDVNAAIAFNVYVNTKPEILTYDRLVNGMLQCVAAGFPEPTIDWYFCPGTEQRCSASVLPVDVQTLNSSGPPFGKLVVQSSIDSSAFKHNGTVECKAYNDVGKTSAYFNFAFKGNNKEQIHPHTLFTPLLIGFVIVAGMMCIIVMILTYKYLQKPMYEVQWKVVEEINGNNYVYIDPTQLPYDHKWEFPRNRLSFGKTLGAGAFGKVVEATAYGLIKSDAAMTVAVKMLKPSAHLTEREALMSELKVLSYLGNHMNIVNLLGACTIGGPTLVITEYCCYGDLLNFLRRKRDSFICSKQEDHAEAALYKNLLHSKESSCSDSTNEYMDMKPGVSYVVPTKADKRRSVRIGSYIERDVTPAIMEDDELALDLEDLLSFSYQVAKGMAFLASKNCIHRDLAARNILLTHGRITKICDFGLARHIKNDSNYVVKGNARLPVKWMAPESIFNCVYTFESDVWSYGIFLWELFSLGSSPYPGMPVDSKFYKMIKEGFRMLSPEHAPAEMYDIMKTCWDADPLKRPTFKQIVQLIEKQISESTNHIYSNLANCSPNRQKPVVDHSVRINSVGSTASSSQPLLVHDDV
T8 sequence (Q15349 whole entry): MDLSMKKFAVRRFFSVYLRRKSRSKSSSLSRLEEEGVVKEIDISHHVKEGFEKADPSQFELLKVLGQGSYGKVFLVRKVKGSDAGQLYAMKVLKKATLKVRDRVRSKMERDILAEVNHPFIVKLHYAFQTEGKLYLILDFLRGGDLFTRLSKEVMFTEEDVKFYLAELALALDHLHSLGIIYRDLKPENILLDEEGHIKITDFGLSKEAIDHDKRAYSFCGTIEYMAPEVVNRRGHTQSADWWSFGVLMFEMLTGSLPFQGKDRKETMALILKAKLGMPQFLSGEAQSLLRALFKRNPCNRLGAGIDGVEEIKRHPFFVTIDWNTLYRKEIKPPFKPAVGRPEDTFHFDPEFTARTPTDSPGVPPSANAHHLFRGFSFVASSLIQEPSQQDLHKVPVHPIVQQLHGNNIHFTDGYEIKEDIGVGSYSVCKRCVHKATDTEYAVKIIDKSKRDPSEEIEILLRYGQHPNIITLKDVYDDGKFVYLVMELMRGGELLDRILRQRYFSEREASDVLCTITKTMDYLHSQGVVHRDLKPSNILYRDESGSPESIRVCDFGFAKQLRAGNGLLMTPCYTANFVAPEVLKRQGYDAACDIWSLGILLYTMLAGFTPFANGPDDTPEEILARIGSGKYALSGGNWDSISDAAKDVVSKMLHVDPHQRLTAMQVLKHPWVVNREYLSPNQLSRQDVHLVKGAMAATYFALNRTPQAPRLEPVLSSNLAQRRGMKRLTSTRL
T5 sequence (Q9UIK4 whole entry): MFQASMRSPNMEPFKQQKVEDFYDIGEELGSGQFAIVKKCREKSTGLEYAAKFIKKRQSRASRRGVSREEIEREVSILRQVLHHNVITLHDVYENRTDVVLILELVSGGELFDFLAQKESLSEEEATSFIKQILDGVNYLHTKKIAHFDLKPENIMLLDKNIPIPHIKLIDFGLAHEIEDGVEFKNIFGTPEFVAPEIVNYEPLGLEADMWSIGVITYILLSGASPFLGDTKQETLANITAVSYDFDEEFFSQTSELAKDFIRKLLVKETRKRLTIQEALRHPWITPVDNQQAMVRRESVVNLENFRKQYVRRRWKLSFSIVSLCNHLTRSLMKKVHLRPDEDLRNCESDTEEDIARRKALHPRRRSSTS
T2 sequence (P68400 whole entry): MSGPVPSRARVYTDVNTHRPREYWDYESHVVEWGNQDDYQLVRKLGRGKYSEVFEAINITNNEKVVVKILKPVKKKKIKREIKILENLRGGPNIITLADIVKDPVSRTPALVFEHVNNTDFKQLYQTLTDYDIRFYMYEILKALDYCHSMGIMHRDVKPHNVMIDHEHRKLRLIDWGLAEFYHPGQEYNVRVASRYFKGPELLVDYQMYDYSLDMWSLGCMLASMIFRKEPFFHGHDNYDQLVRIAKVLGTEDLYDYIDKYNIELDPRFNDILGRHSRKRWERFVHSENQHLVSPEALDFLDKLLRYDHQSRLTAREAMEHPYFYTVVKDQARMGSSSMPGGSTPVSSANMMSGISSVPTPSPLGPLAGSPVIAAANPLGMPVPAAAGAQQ
T2 sequence (P67870 whole entry partner): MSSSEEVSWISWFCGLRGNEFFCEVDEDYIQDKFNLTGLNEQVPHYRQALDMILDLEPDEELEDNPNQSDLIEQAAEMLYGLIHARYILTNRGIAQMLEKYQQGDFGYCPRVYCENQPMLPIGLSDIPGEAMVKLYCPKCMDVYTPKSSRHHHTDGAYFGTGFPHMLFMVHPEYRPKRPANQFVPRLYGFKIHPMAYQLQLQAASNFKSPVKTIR
T4 sequence (P04049 whole entry): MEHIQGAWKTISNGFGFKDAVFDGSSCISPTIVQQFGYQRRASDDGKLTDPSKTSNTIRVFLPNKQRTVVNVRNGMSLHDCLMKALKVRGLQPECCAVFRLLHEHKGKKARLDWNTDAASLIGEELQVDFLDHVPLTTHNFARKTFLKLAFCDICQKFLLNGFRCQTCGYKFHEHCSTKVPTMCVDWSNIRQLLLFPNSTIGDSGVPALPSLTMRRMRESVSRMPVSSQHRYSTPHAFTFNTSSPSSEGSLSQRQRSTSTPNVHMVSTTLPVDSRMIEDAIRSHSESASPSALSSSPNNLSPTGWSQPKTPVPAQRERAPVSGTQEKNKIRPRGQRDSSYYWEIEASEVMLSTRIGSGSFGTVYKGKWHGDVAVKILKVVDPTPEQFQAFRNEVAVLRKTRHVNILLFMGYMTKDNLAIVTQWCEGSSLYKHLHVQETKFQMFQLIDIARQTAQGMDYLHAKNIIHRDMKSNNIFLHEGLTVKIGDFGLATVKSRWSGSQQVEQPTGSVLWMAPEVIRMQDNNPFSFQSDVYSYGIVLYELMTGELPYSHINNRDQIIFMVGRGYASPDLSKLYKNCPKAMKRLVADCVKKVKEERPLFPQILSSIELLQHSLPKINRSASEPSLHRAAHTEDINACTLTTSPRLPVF
T6 sequence (Q13177 whole entry): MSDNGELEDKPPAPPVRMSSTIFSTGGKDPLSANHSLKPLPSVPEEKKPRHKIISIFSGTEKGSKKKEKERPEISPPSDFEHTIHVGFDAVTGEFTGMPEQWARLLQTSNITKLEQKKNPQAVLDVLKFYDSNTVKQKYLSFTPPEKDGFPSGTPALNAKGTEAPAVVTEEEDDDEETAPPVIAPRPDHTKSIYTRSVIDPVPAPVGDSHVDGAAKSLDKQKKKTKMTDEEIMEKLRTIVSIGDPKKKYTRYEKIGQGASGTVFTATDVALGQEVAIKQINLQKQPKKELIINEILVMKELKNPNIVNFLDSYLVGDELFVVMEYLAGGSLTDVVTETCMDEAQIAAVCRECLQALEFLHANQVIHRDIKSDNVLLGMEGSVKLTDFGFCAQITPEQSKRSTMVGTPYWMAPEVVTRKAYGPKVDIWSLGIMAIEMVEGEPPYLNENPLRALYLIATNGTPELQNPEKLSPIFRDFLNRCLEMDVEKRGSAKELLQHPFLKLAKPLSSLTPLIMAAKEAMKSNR
T1 sequence (Q00534 whole entry): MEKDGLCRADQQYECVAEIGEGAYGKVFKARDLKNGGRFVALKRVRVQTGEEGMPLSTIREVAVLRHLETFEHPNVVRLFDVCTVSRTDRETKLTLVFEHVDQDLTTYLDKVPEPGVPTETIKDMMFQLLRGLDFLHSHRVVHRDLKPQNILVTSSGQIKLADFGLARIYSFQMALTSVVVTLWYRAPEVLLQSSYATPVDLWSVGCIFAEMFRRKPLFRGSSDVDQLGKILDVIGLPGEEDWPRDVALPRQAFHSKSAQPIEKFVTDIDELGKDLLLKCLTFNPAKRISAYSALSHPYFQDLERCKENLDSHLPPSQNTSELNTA
T1 sequence (P30281 whole entry partner): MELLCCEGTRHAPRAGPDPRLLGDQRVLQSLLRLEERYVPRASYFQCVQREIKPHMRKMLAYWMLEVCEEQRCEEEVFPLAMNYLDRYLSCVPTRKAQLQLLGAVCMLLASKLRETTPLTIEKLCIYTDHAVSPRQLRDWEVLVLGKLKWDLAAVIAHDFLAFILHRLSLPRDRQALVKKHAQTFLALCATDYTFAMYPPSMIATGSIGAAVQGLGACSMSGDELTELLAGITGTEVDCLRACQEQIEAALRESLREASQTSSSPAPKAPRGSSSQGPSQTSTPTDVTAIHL

Cn1ncc(Cl)c1-c1cc(C(=O)N[C@H](CN)Cc2cccc(F)c2)sc1Cl [GSK2110183] gave an inhibition at 0.5 µM (CDK6/cyclinD3(h)) of 0%, an inhibition at 10 µM (CDK6/cyclinD3(h)) of 5% and an inhibition at 0.5 µM (CK2(h)) of 3%. The inhibition at 10 µM (CK2(h)) was 8%, the inhibition at 0.5 µM (cKit(D816H)(h)) was -6% and the inhibition at 10 µM (cKit(D816H)(h)) was -3%. It also gave an inhibition at 0.5 µM (c-RAF(h)) of -2%, an inhibition at 10 µM (c-RAF(h)) of 11% and an inhibition at 0.5 µM (DAPK2(h)) of -1%. It also gave an inhibition at 10 µM (DAPK2(h)) of 37%, an inhibition at 0.5 µM (PAK2(h)) of -2% and an inhibition at 10 µM (PAK2(h)) of 23%. For the same molecule, the inhibition at 0.5 µM (PKD2(h)) was 11%, the inhibition at 10 µM (PKD2(h)) was 56% and the inhibition at 0.5 µM (Rsk3(h)) was 35%. For the same molecule, the inhibition at 10 µM (Rsk3(h)) was 89%, the inhibition at 0.5 µM (SGK2(h)) was 51% and the inhibition at 10 µM (SGK2(h)) was 95%. For the same molecule, the inhibition at 0.5 µM (TSSK1(h)) was 16%, the inhibition at 10 µM (TSSK1(h)) was 84% and the inhibition at 0.5 µM (ZAP-70(h)) was 8%. The inhibition at 10 µM (ZAP-70(h)) was -2% and the IC50 (PKCζ) was over 1000 nM.

Work on Cn1ncc(Cl)c1-c1cc(C(=O)N[C@H](CN)Cc2ccc(F)c(F)c2)oc1Cl [GSK2141795] yielded an inhibition at 0.5 µM (CDK6/cyclinD3(h); 0.5 µM, read-out: % Inhibition) of -12%, an inhibition at 10 µM (CDK6/cyclinD3(h); 10 µM, read-out: % Inhibition) of -12% and an inhibition at 0.5 µM (CK2(h); 0.5 µM, read-out: % Inhibition) of 4%. The inhibition at 10 µM (CK2(h); 10 µM, read-out: % Inhibition) was 9%, the inhibition at 0.5 µM (cKit(D816H)(h); 0.5 µM, read-out: % Inhibition) was -15% and the inhibition at 10 µM (cKit(D816H)(h); 10 µM, read-out: % Inhibition) was 43%. It also gave an inhibition at 0.5 µM (c-RAF(h); 0.5 µM, read-out: % Inhibition) of -4%, an inhibition at 10 µM (c-RAF(h); 10 µM, read-out: % Inhibition) of 13% and an inhibition at 0.5 µM (DAPK2(h); 0.5 µM, read-out: % Inhibition) of -10%. For the same molecule, the inhibition at 10 µM (DAPK2(h); 10 µM, read-out: % Inhibition) was 58%, the inhibition at 0.5 µM (PAK2(h); 0.5 µM, read-out: % Inhibition) was 22% and the inhibition at 10 µM (PAK2(h); 10 µM, read-out: % Inhibition) was 25%. It also gave an inhibition at 0.5 µM (PKD2(h); 0.5 µM, read-out: % Inhibition) of 17%, an inhibition at 10 µM (PKD2(h); 10 µM, read-out: % Inhibition) of 66% and an inhibition at 0.5 µM (Rsk3(h); 0.5 µM, read-out: % Inhibition) of 51%. The inhibition at 10 µM (Rsk3(h); 10 µM, read-out: % Inhibition) was 94%, the inhibition at 0.5 µM (SGK2(h); 0.5 µM, read-out: % Inhibition) was 67% and the inhibition at 10 µM (SGK2(h); 10 µM, read-out: % Inhibition) was 97%. The inhibition at 0.5 µM (TSSK1(h); 0.5 µM, read-out: % Inhibition) was 21%, the inhibition at 10 µM (TSSK1(h); 10 µM, read-out: % Inhibition) was 83% and the inhibition at 0.5 µM (ZAP-70(h); 0.5 µM, read-out: % Inhibition) was -23%. For the same molecule, the inhibition at 10 µM (ZAP-70(h); 10 µM, read-out: % Inhibition) was -24% and the IC50 (PKCζ) was over 1000 nM.
